Patent US20130131161A1, “METHODS AND COMPOSITIONS FOR CARDIOVASCULAR DISEASES AND CONDITIONS” (priority 2009, published 2013)
“And” between values parts separate entries of the source, which are not always exact repeats. Equal values may be shown once.

System: eNOS
Test: eNOS protein abundance in HUVECs by immunochemical methods (Example 2)
Type: cell-based, human
Conditions: for eNOS protein abundance (mean ± sd): pg/ug total protein; for Fold difference eNOS protein abundance (mean ± sd): (LA-419 5 μM)/(control)
Excerpt: eNOS Activity and Protein Abundance Measurements
Using immunochemical methods, there was no change in any condition in relation to eNOS protein abundance, Tables ss-L1.

With `CC(=O)SC1COC2C(O[N+](=O)[O-])COC12` (stereo not drawn) [LA-419, S-(6-Nitro-oxi-hexahydro-furo[3,2-b]furan-3-1-il)thioacetate] as the compound, how does the “eNOS protein abundance % Change (mean ± sd)” value (5 μM LA-419, Intron 4 variant b/a, a/a, c/c (n=14)) read?
The value was 0.32 (9.26) %.

What about the “eNOS protein abundance % Change (mean ± sd)” value (5 μM LA-419, Intron 4 variant b/b (n=31)) of the same compound?
Its value is −1.78 (6.88) %.

What about the “eNOS protein abundance (mean ± sd)” value (5 μM LA-419, G894T + T786C G/G + T/C, n=8) of the same compound?
Its value is 6.27 (1.56) pg/ug.

What about the “eNOS protein abundance (mean ± sd)” value (5 μM LA-419, G894T + T786C G/G + T/T, n=18) of the same compound?
Its value is 6.17 (1.24) pg/ug.

What about the “eNOS protein abundance (mean ± sd)” value (5 μM LA-419, G894T + T786C G/T + C/C, n=1) of the same compound?
The value was 7.25 (0) pg/ug.

And the “eNOS protein abundance (mean ± sd)” value (5 μM LA-419, G894T + T786C G/T + T/C, n=13)?
Its value is 5.59 (1.08) pg/ug.

What about the “eNOS protein abundance (mean ± sd)” value (5 μM LA-419, G894T + T786C G/T + T/T, n=4) of the same compound?
The value was 5.82 (1.49) pg/ug.

What about the “eNOS protein abundance (mean ± sd)” value (5 μM LA-419, G894T + T786C T/T + C/C, n=3) of the same compound?
The value was 6.47 (1.34) pg/ug.

What about the “eNOS protein abundance (mean ± sd)” value (5 μM LA-419, G894T + T786C T/T + T/C, n=2) of the same compound?
The value was 4.52 (0.30) pg/ug.

What about the “eNOS protein abundance (mean ± sd)” value (5 μM LA-419, G894T G/G, n=26) of the same compound?
Its value is 6.20 (1.31) pg/ug.

And the “eNOS protein abundance (mean ± sd)” value (5 μM LA-419, G894T G/T & T/T, n=23)?
Its value is 5.72 (1.20) pg/ug.

What about the “eNOS protein abundance (mean ± sd)” value (5 μM LA-419, G894T G/T, n=18) of the same compound?
Its value is 5.73 (1.17) pg/ug.

What about the “eNOS protein abundance (mean ± sd)” value (5 μM LA-419, G894T T/T, n=5) of the same compound?
Its value is 5.69 (1.44) pg/ug.

What about the “eNOS protein abundance (mean ± sd)” value (5 μM LA-419, Genotype Combination, n=31 (title: Combination = G/G + T/T, G/G + T/C, G/G/+C/C, G/T + T/T, G/T + T/C, G/T + C/C, T/T + T/C)) of the same compound?
The value was 5.86 (1.30) pg/ug.

And the “eNOS protein abundance (mean ± sd)” value (5 μM LA-419, Genotype Reference, n=18 (title: Reference group = T/T + C/C))?
The value was 6.17 (1.24) pg/ug.

What about the “eNOS protein abundance (mean ± sd)” value (5 μM LA-419, Intron 4 a/a, n=3) of the same compound?
Its value is 7.17 (1.19) pg/ug.

What about the “eNOS protein abundance (mean ± sd)” value (5 μM LA-419, Intron 4 b/a, a/a, c/c, n=14) of the same compound?
Its value is 6.31 (1.50) pg/ug.

And the “eNOS protein abundance (mean ± sd)” value (5 μM LA-419, Intron 4 b/a, n=10)?
Its value is 5.95 (1.56) pg/ug.

What about the “eNOS protein abundance (mean ± sd)” value (5 μM LA-419, Intron 4 b/b, n=31) of the same compound?
The value was 5.75 (1.13) pg/ug.

What about the “eNOS protein abundance (mean ± sd)” value (5 μM LA-419, Intron 4 c/c, n=1) of the same compound?
Its value is 7.39 (0) pg/ug.

What about the “eNOS protein abundance (mean ± sd)” value (5 μM LA-419, T-786C CC, n=4) of the same compound?
The value was 6.67 (1.16) pg/ug.

And the “eNOS protein abundance (mean ± sd)” value (5 μM LA-419, T-786C T/C & C/C, n=27)?
Its value is 5.87 (1.30) pg/ug.

What about the “eNOS protein abundance (mean ± sd)” value (5 μM LA-419, T-786C T/C, n=23) of the same compound?
Its value is 5.73 (1.29) pg/ug.

And the “eNOS protein abundance (mean ± sd)” value (5 μM LA-419, T-786C T/T, n=22)?
Its value is 6.11 (1.26) pg/ug.

And the “eNOS protein abundance % Change (mean ± sd)” value (5 μM LA-419 vs control, n=2)?
Its value is −4.89 (0.49) %.

And the “eNOS protein abundance % Change (mean ± sd)” value (5 μM LA-419 vs control, G894T G/G, n=26)?
The value was −1.07 (8.07) %.

What about the “eNOS protein abundance % Change (mean ± sd)” value (5 μM LA-419 vs control, G894T G/T, n=18) of the same compound?
The value was −0.79 (7.54) %.

What about the “eNOS protein abundance % Change (mean ± sd)” value (5 μM LA-419 vs control, G894T T/T, n=5) of the same compound?
The value was −1.54 (6.56) %.

And the “eNOS protein abundance % Change (mean ± sd)” value (5 μM LA-419 vs control, Intron 4 a/a, n=3)?
The value was 1.11 (10.89) %.

What about the “eNOS protein abundance % Change (mean ± sd)” value (5 μM LA-419 vs control, Intron 4 b/a, n=10) of the same compound?
The value was 0.68 (9.65) %.

What about the “eNOS protein abundance % Change (mean ± sd)” value (5 μM LA-419 vs control, Intron 4 b/b, n=31) of the same compound?
Its value is −1.78 (6.88) %.

What about the “eNOS protein abundance % Change (mean ± sd)” value (5 μM LA-419 vs control, Intron 4 c/c, n=1) of the same compound?
The value was −5.66 (0) %.

What about the “eNOS protein abundance % Change (mean ± sd)” value (5 μM LA-419 vs control, Race Asian, n=1) of the same compound?
The value was −17.56 (0) %.

What about the “eNOS protein abundance % Change (mean ± sd)” value (5 μM LA-419 vs control, Race Black, n=12) of the same compound?
Its value is −5.95 (6.82) %.

What about the “eNOS protein abundance % Change (mean ± sd)” value (5 μM LA-419 vs control, Race Caucasian, n=26) of the same compound?
The value was 2.50 (6.89) %.

What about the “eNOS protein abundance % Change (mean ± sd)” value (5 μM LA-419 vs control, Race Hispanic, n=6) of the same compound?
Its value is −1.16 (4.99) %.

And the “eNOS protein abundance % Change (mean ± sd)” value (5 μM LA-419 vs control, Race Not Reported, n=2)?
Its value is −4.62 (0.81) %.

What about the “eNOS protein abundance % Change (mean ± sd)” value (5 μM LA-419 vs control, T-786C C/C, n=4) of the same compound?
Its value is −6.82 (6.09) %.

And the “eNOS protein abundance % Change (mean ± sd)” value (5 μM LA-419 vs control, T-786C T/C, n=23)?
Its value is −0.37 (9.0) %.

And the “eNOS protein abundance % Change (mean ± sd)” value (5 μM LA-419 vs control, T-786C T/T, n=22)?
Its value is −0.64 (5.88) %.

What about the “Fold difference eNOS protein abundance (mean ± sd)” value (Combination of all G894T + T-786C genotypes but G/G + T/T, n=31) of the same compound?
The value was 0.99 (0.09).

What about the “Fold difference eNOS protein abundance (mean ± sd)” value (Combination of all G894T + T-786C genotypes but T/T + C/C, n=46) of the same compound?
The value was 0.99 (0.08).

What about the “Fold difference eNOS protein abundance (mean ± sd)” value (G894T + T-786C G/G + T/C, n=8) of the same compound?
The value was 0.98 (0.12).

And the “Fold difference eNOS protein abundance (mean ± sd)” value (G894T + T-786C G/G + T/T, n=18)?
Its value is 0.99 (0.06).

And the “Fold difference eNOS protein abundance (mean ± sd)” value (G894T + T-786C G/T + C/C, n=1)?
Its value is 0.88 (0).

And the “Fold difference eNOS protein abundance (mean ± sd)” value (G894T + T-786C G/T + T/C, n=13)?
The value was 1.00 (0.07).

What about the “Fold difference eNOS protein abundance (mean ± sd)” value (G894T + T-786C G/T + T/T, n=4) of the same compound?
The value was 1.00 (0.08).

And the “Fold difference eNOS protein abundance (mean ± sd)” value (G894T + T-786C T/T + C/C, n=3)?
Its value is 0.95 (0.06).

What about the “Fold difference eNOS protein abundance (mean ± sd)” value (G894T + T-786C T/T + T/C, n=2) of the same compound?
Its value is 1.04 (0.01).

What about the “Fold difference eNOS protein abundance (mean ± sd)” value (G894T G/G & G/T, n=44) of the same compound?
The value was 0.99 (0.08).

What about the “Fold difference eNOS protein abundance (mean ± sd)” value (G894T G/G, n=26) of the same compound?
Its value is 1.00 (0.08) and 0.99 (0.08).

What about the “Fold difference eNOS protein abundance (mean ± sd)” value (G894T G/T & T/T, n=23) of the same compound?
Its value is 0.99 (0.07).

What about the “Fold difference eNOS protein abundance (mean ± sd)” value (G894T G/T, n=18) of the same compound?
The value was 0.99 (0.08).

What about the “Fold difference eNOS protein abundance (mean ± sd)” value (G894T T/T, n=5) of the same compound?
The value was 0.98 (0.07).

What about the “Fold difference eNOS protein abundance (mean ± sd)” value (Intron 4 a/a, n=3) of the same compound?
Its value is 1.01 (0.11).
